Results on 1 compound are retold here after patent US12636292B2, “Method and composition for reversing and/or inhibiting atherosclerosis” (ARJIL BIOTECH HOLDING COMPANY LIMITED, priority 2019, dated 2026).

In data set [1] the test system is SVEC4-10 vascular endothelial cells. Nature of the data set: MTT cell viability assay. It is filed as cell-based. The following applies: for cell viability of vascular endothelial cells: sham = 100%. As for the experimental part: (§1) Vascular endothelial cells (SVEC4-10) were purchased from the Cell Bank of Hsin-Chu Food Industry Development Institute (FIRDI, Cat no: BCRC-60220). SVEC4-10 cells were cultured in high-glucose DMEM (Dulbecco's Modified Eagle Medium) (Gibco BRL, Grand Island, NY, USA) and supplemented with 10% Fetal Bovine Serum (FBS) (HyClone, Logan, UT, USA), 1.5 g/L sodium bicarbonate, 0.11 g/L sodium pyruvate, 4 mM L-glutamine, 100 U/mL penicillin, and 100 μg/mL streptomycin (Gibco BRL, Grand Island, NY, USA).
(§2) These cells were grown in a culture medium and maintained in a humidified incubator at 37° C. and 5% CO2. Vascular endothelial cells were digested with 0.25% trypsin (Gibco BRL, Grand Island, NY, USA) for approximately 1 min until most cells detached. All cell densities were adjusted to 1×10^5 cells per well for each 24-well culture plate. After vascular endothelial cells were cultured for 24 h, in the hyperlipidemia group, 0.75 mM palm acid oil (CAS 57-10-3-800508; Sigma-Aldrich Co., St. Louis, MO, USA) (Oh et al., 2018) was added, and 10, 20, and 50 μg/mL of antcin K in each experiment was individually added.
We used a 3-(4,5-Dimethylthiazol-2-yl)-2,5-diphenyltetrazolium bromide (MTT) assay to examine the cell viability of antcin K in this study. A total of 1×10^5 cells/mL SVEC4-10 cells were added to a 24-well plate, and 0.5 mM palm acid oil (Sigma-Aldrich Co., St. Louis, MO, USA) was partially added, and 10, 20, and 50 μg/mL of test samples were added to SVEC4-10 cells, followed by culturing within 24 h. After adding 0.5 mg/mL of MTT solution (M5655, Sigma-Aldrich Co., St. Louis, MO, USA) and culturing for 2 h, the supernatant was removed, and 100 μL/well of DMSO organic solvent was added, followed by a 5 min shaking and then absorbance measurement at 570 nm.

A further data set deals with TNF-α. Nature of the data set: ELISA of TNF-α in palm acid oil-treated vascular endothelial cells. The class given is cell-based, mouse. How it is done: as §1, §2
(§3) We analyzed the content of inflammatory cytokines by ELISA. The supernatant of SVEC4-10 cells with palm acid oil hyperlipidemia treatment was collected after 24 h of culture and added to a 96-well micro-well plate (Thermo Scientific Nunc®, Nunc AS, Copenhagen, Denmark). An amount of 100 μL/well of carbonate buffer containing antibodies of 32 ng/mL purified rat anti-mouse TNF-α (88-7324; Invitrogen, Carlsbad, CA, USA) or 32 ng/mL purified rat anti-mouse IL-1_(88-7013; Invitrogen, Carlsbad, CA, USA) was added to each well and kept at 4° C. overnight. After that, we washed three times with 0.05% phosphate-buffered saline with Tween 20 (PBST) buffer to remove unbound monoclonal antibodies. Then, we added 200 μL/well of blocking solution to reduce nonspecific binding. […] The reaction was terminated with 2% H2SO4, and the absorbance at 450-570 nm was measured.

The subject of a further data set is VCAM-1. Nature of the data set: Immunofluorescence staining of VCAM-1 in vascular endothelial cells. The class given is cell-based, mouse. The following applies: 20 μg/mL with 0.75 mM palm acid oil; p<0.01.
The subject of data set [2] is IL-1β. The experiment in a line: ELISA of IL-1β in palm acid oil-treated vascular endothelial cells. The class given is cell-based, mouse. How it is done:
as §1, §2, §3

The subject of data set [3] is IL-1β. Nature of the data set: ELISA of IL-1β in RAW264.7 macrophages. The class given is cell-based, mouse. The settings on record: 20 μg/mL with 0.75 mM palm acid oil (272.3 without).
For a further data set, the system named is KLF4. Nature of the data set: Immunofluorescence staining of KLF4 in vascular endothelial cells. It is filed as cell-based, mouse. The settings on record: 20 μg/mL with 0.75 mM palm acid oil; p<0.01. As for the experimental part: as §1
These cells were grown in a culture medium and maintained in a humidified incubator at 37° C. and 5% CO2. […]
We used immunofluorescence staining to examine expressions of KLF4 and CD36. […] Note that this step needs to be protected from light at the beginning Nuclei were stained with 1 μg/mL diamino-2-phenilindole (DAPI) (D3286, Sigma-Aldrich Co., St. Louis, MO, USA) for 10 min at room temperature after washing three times with PBS and mounted with a fluorescent protectant-containing adhesive to reduce fluorescence decay. Fluorescent images were obtained using a Leica DM IRB inverted fluorescence microscope (Leica Microsystems, Wetzlar, Germany), and analysis was performed using Leica Application Suite software (LAS) V4.12 s (Leica Microsystems, Wetzlar, Germany). The Rhodamine fluorescence-labeled cytoskeleton was visualized at 565 nm by exciting cells at 540 nm. […]

On to `C=C(CC[C@@H](C)[C@H]1CC[C@H]2C3=C(C(=O)C[C@]12C)[C@@]1(C)CC[C@H](O)[C@](C)(O)C1CC3O)C(C)C(=O)O` (some centres unmarked) [antcin K, 3a,4b,7b-tri-hydroxy4a-methylergosta-8,24(28)-dien-11-on-26-oic acid], for which the “cell viability of vascular endothelial cells” value in data set [1] (10 μg/mL with 0.75 mM palm acid oil) came to 71.5%; in data set [1] (20 μg/mL with 0.75 mM palm acid oil), 84.6%; in data set [1] (50 μg/mL with 0.75 mM palm acid oil), 109.2%. Also, the “change of cell viability of vascular endothelial cells” value in data set [1] (10, 20 and 50 μg/mL without palm acid oil damage) was “not very obvious”. In addition, in data set [1] (Mus musculus, SVEC4-10, antcin K treatment 0-50 μg/mL, MTT), the IC50 is more than 50 µg/mL. Moreover, the “expression of TNF-α of vascular endothelial cells” value in the data set with TNF-α (10 μg/mL with 0.75 mM palm acid oil (285.5 without)) was determined as 178.8 pg/mL; in the data set on TNF-α (20 μg/mL with 0.75 mM palm acid oil (285.5 without)) it was 180.3 pg/mL; with TNF-α (50 μg/mL with 0.75 mM palm acid oil (285.5 without)), 181.0 pg/mL. Also, in the data set with VCAM-1, the “expression of VCAM-1 in palm acid oil-treated vascular endothelial cells” value is listed as “significantly decreased”. For the same compound, the figures for the “expression of IL-1β of vascular endothelial cells” value in the data set on IL-1β [2] (10 μg/mL with 0.75 mM palm acid oil (86.6 without)), with IL-1β [2] (20 μg/mL with 0.75 mM palm acid oil (86.6 without)) and in the data set on IL-1β [2] (50 μg/mL with 0.75 mM palm acid oil (86.6 without)) were 70.2 pg/mL, 69.3 pg/mL and 71.5 pg/mL, respectively. Further, in the data set with IL-1β [3], the “expression of IL-1β of RAW264.7 macrophage cells” value is recorded as 189.2 pg/mL. Moreover, in the data set with KLF4, the “expression of KLF4 in palm acid oil-treated vascular endothelial cells” value is listed as “significantly increased”.
